The values below come from PubChem BioAssay AID330 (DTP/NCI, 2004).

Values joined by “and” are separate entries in the source; they are usually repeats but may differ in a detail not shown here. Equal values may be shown once. Inconclusive results and toxic doses are left out.

The assay concerns P388 leukemia ip, CD2F1 mice, survival T/C. The experiment in a line: NCI In Vivo Anticancer Drug Screen. Data for tumor model P388 Leukemia (intraperitoneal) in CD2F1 (CDF1) mice. To be noted: endpoint: median survival time, higher = longer survival. An outline of the steps:
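Mice carrying the transplanted tumor received test compound or vehicle. Survival was recorded in each group, and the value is the treated-group measurement divided by that of the vehicle-treated control group.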

Where [1] appears, read: dose: 50.0 mg/kg/injection, schedule: Q01DX009 (ip), vehicle: Klucel (hydroxypropylcellulose) (HPC).
The mark [2] stands for this setting: dose: 50.0 mg/kg/injection, schedule: Q01DX005 (ip), vehicle: Klucel (hydroxypropylcellulose) (HPC).
Setting [3] is: dose: 100.0 mg/kg/injection, schedule: Q01DX005 (ip), vehicle: Klucel (hydroxypropylcellulose) (HPC).
The mark [4] stands for this setting: dose: 200.0 mg/kg/injection, schedule: Q01DX005 (ip), vehicle: Klucel (hydroxypropylcellulose) (HPC).
The mark [5] stands for this setting: dose: 100.0 mg/kg/injection, schedule: Q01DX001 (ip), vehicle: Klucel (hydroxypropylcellulose) (HPC).
Setting [6] is: dose: 200.0 mg/kg/injection, schedule: Q01DX001 (ip), vehicle: Klucel (hydroxypropylcellulose) (HPC).
The mark [7] stands for this setting: dose: 400.0 mg/kg/injection, schedule: Q01DX001 (ip), vehicle: Klucel (hydroxypropylcellulose) (HPC).
The mark [8] stands for this setting: dose: 50.0 mg/kg/injection, schedule: Q01DX009 (ip), vehicle: saline.

As for `C[n+]1c(/C=C/c2ccc(N3CCCC3)cc2)sc2ccccc21`, the T/C by setting is: (dose: 0.79 mg/kg/injection, schedule: Q01DX009 (ip), vehicle: saline) 105 % of control; (dose: 1.56 mg/kg/injection, schedule: Q01DX009 (ip), vehicle: saline) 95 % of control; (dose: 3.12 mg/kg/injection, schedule: Q01DX009 (ip), vehicle: saline) 106 % of control and 117 % of control; (dose: 6.25 mg/kg/injection, schedule: Q01DX009 (ip), vehicle: saline) 108 % of control.
For the molecule `CCCC(Nc1nncs1)Nc1nncs1`, the T/C reads like this: (dose: 50.0 mg/kg/injection, schedule: Q01DX005 (ip), vehicle: saline with Tween-80) 101 % of control; (dose: 100.0 mg/kg/injection, schedule: Q01DX005 (ip), vehicle: saline with Tween-80) 112 % of control and 94 % of control; (dose: 200.0 mg/kg/injection, schedule: Q01DX005 (ip), vehicle: saline with Tween-80) 108 % of control; (dose: 400.0 mg/kg/injection, schedule: Q01DX005 (ip), vehicle: saline with Tween-80) 157 % of control.
`Cc1ccc(Oc2ccc(C(=O)C(CN(C)C)CN(C)C)cc2)cc1`: the T/C is, setting by setting: (dose: 1.88 mg/kg/injection, schedule: Q01DX005 (ip), vehicle: saline) 107 % of control; (dose: 3.75 mg/kg/injection, schedule: Q01DX005 (ip), vehicle: saline) 110 % of control; (dose: 7.5 mg/kg/injection, schedule: Q01DX005 (ip), vehicle: saline) 112 % of control and 121 % of control.
Consider `COc1ccc(N=Nc2c(-c3cccs3)nn(C(=S)SC)c2C(F)(F)F)cc1`, for which the T/C was 101 % of control (dose: 7.5 mg/kg/injection, schedule: Q01DX005 (ip), vehicle: saline with Tween-80); 108 % of control (dose: 15.0 mg/kg/injection, schedule: Q01DX005 (ip), vehicle: saline with Tween-80); 95 % of control (dose: 30.0 mg/kg/injection, schedule: Q01DX005 (ip), vehicle: saline with Tween-80).
In the case of `CN(C)CCC(=O)c1ccc2c(c1)OCO2`, the T/C runs as follows: (dose: 60.0 mg/kg/injection, schedule: Q01DX005 (ip), vehicle: saline) 100 % of control; (dose: 120.0 mg/kg/injection, schedule: Q01DX005 (ip), vehicle: saline) 92 % of control.
For `[N-]=[N+]=Nc1ccc(Nc2c3ccccc3nc3ccccc23)cc1`, the T/C reads like this: (dose: 12.5 mg/kg/injection, schedule: Q01DX009 (ip), vehicle: Klucel (hydroxypropylcellulose) (HPC)) 112 % of control and 98 % of control; (dose: 25.0 mg/kg/injection, schedule: Q01DX009 (ip), vehicle: Klucel (hydroxypropylcellulose) (HPC)) 101 % of control and 114 % of control; under setting [1], 117 % of control and 122 % of control.
For the molecule `O=C(O)CSc1cc(Cl)ccc1Cl`, the T/C runs as follows: (dose: 12.5 mg/kg/injection, schedule: Q04DX003 (ip), vehicle: Klucel (hydroxypropylcellulose) (HPC)) 102 % of control; (dose: 25.0 mg/kg/injection, schedule: Q04DX003 (ip), vehicle: Klucel (hydroxypropylcellulose) (HPC)) 100 % of control; (dose: 50.0 mg/kg/injection, schedule: Q04DX003 (ip), vehicle: Klucel (hydroxypropylcellulose) (HPC)) 102 % of control; (dose: 100.0 mg/kg/injection, schedule: Q04DX003 (ip), vehicle: Klucel (hydroxypropylcellulose) (HPC)) 103 % of control.
On to `Cc1[nH]c(C)c2ccc(=O)ccc12`, for which the T/C by setting is: (dose: 30.0 mg/kg/injection, schedule: Q01DX005 (ip), vehicle: suspension in saline) 101 % of control; (dose: 60.0 mg/kg/injection, schedule: Q01DX005 (ip), vehicle: suspension in saline) 94 % of control and 97 % of control; (dose: 120.0 mg/kg/injection, schedule: Q01DX005 (ip), vehicle: suspension in saline) 88 % of control; (dose: 240.0 mg/kg/injection, schedule: Q01DX005 (ip), vehicle: suspension in saline) 93 % of control.
With `CCc1nc2c(cnn2C)c(=O)n1-c1ccc(C)cc1`, the T/C is, setting by setting: under setting [2], 97 % of control; under setting [3], 101 % of control; under setting [4], 98 % of control.
The matching figures for `COC(=O)NP1(=O)NCc2ccccc2CN1`: 100 % of control, 94 % of control and 94 % of control.
`CCOC(=O)C1=C(c2ccccc2)OC(N)=C(C#N)C1c1ccc(C)cc1` (stereo not given): the T/C is 113 % of control under setting [2], 101 % of control under setting [3] and 103 % of control under setting [4].
Regarding `Cc1nc(C)c(C(=O)O)cc1C(=O)O`, the T/C runs as follows: (dose: 100.0 mg/kg/injection, schedule: Q04DX003 (ip), vehicle: saline) 100 % of control; (dose: 200.0 mg/kg/injection, schedule: Q04DX003 (ip), vehicle: saline) 95 % of control; (dose: 400.0 mg/kg/injection, schedule: Q04DX003 (ip), vehicle: saline) 86 % of control.
In the case of `O=C(/C=C/c1ccc(O)cc1)NCCc1c[nH]c2ccc(O)cc12`, the T/C was 106 % of control (dose: 25.0 mg/kg/injection, schedule: Q01DX005 (ip), vehicle: Klucel + Tween-80); 97 % of control (dose: 50.0 mg/kg/injection, schedule: Q01DX005 (ip), vehicle: Klucel + Tween-80); 92 % of control (dose: 100.0 mg/kg/injection, schedule: Q01DX005 (ip), vehicle: Klucel + Tween-80); 95 % of control (dose: 200.0 mg/kg/injection, schedule: Q01DX005 (ip), vehicle: Klucel + Tween-80).
As for `CN1C(=O)NC(=O)C(=C2C=C(c3ccccc3)C(C#N)(c3ccccc3)C(c3ccccc3)=C2)C1=O` (stereo not given), the T/C was 97 % of control under setting [2], 97 % of control under setting [3] and 101 % of control under setting [4].
`CCCCCCCCCCN1CCS(=O)(=O)CC1`: the T/C runs as follows: under setting [1], 101 % of control; (dose: 100.0 mg/kg/injection, schedule: Q01DX009 (ip), vehicle: Klucel (hydroxypropylcellulose) (HPC)) 100 % of control; (dose: 200.0 mg/kg/injection, schedule: Q01DX009 (ip), vehicle: Klucel (hydroxypropylcellulose) (HPC)) 98 % of control.
On to `CCOP(=S)(N/N=C/c1cccnc1)OCC`, for which the T/C was 101 % of control under setting [5], 101 % of control under setting [6] and 108 % of control under setting [7].
For the molecule `CC1=C(C#N)C(=O)N(C)C(=O)C1(Cl)Cl`, the T/C (dose: 100.0 mg/kg/injection, schedule: Q04DX002 (ip), vehicle: Klucel (hydroxypropylcellulose) (HPC)) was 98 % of control and the T/C (dose: 200.0 mg/kg/injection, schedule: Q04DX002 (ip), vehicle: Klucel (hydroxypropylcellulose) (HPC)) was 98 % of control.
For the molecule `OCCCCCCCCCCCC1C=CCC1` (stereo not given), the T/C is 101 % of control (dose: 100.0 mg/kg/injection, schedule: Q01DX001 (ip), vehicle: saline); 101 % of control (dose: 200.0 mg/kg/injection, schedule: Q01DX001 (ip), vehicle: saline); 107 % of control (dose: 400.0 mg/kg/injection, schedule: Q01DX001 (ip), vehicle: saline).
In the case of `COP1(OC)(OC)OC(C)=C(C)O1`, the T/C under setting [8] is 86 % of control; the T/C (dose: 100.0 mg/kg/injection, schedule: Q01DX009 (ip), vehicle: saline) was 94 % of control; the T/C (dose: 200.0 mg/kg/injection, schedule: Q01DX009 (ip), vehicle: saline) is 86 % of control.
For the molecule `CCN(CC)CCCC(C)Nc1cc(C)c2nc(C)cc(C)c2c1C` (stereo not given), the T/C by setting is: (dose: 12.5 mg/kg/injection, schedule: Q01DX009 (ip), vehicle: saline) 98 % of control; (dose: 25.0 mg/kg/injection, schedule: Q01DX009 (ip), vehicle: saline) 97 % of control; (dose: 50.0 mg/kg/injection, schedule: Q01DX009 (ip), vehicle: saline with Tween-80) 100 % of control; under setting [8], 90 % of control.
Regarding `CCOC1=C(C)C(N(CC)CC)=NS(=O)(=O)c2ccccc21`, the T/C reads like this: under setting [5], 99 % of control; under setting [6], 103 % of control; under setting [7], 98 % of control.
Regarding `CCCC(Nc1ncccn1)Nc1ncccn1`, the T/C is 100 % of control under setting [2], 100 % of control under setting [3] and 99 % of control under setting [4].
